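Assay format: 96-well plates, 48-hour exposure. The concentration for 50% growth inhibition is given as GI50.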 Active and inactive are the calls of the source. No stated cut-off is given here; in the data, active = GI50 up to about 1.1 µM and inactive = higher.
Assays:
Experiment in all cases: growth of human tumour cells (NCI), 48 h
[1] = system: TK-10
[2] = system: RPMI-8226
[3] = system: DU-145
[4] = system: KM12
[5] = system: MDA-N
[6] = system: PC-3
[7] = system: COLO 205
[8] = system: MOLT-4
[9] = system: SR
[10] = system: M14
[11] = system: EKVX
[12] = system: UACC-62
[13] = system: UACC-257
[14] = system: OVCAR-8
[15] = system: 786-0
[16] = system: RXF 393
[17] = system: SK-MEL-5
[18] = system: OVCAR-4
[19] = system: LOX IMVI
[20] = system: NCI-H23
[21] = system: T47D
[22] = system: SW-620
[23] = system: HOP-92
[24] = system: HL-60
[25] = system: SF-295
[26] = system: SN12C
[27] = system: K562
[28] = system: SK-MEL-28
[29] = system: A549
[30] = system: CCRF-CEM
[31] = system: MDA-MB-435
[32] = system: MDA-MB-231
[33] = system: MCF7
[34] = system: Malme-3M
[35] = system: SF-268
[36] = system: HOP-62
[37] = system: HCC 2998
[38] = system: HT-29
[39] = system: IGROV-1
[40] = system: SK-OV-3
[41] = system: SNB-75
[42] = system: CAKI-1
[43] = system: HCT-15

With `CCOC(=O)CSc1[nH]c(NC(=S)Nc2ccccc2)c(C(N)=O)c1C(N)=O` the GI50 [1] was > 10 µM (inactive), the GI50 [2] was > 10 µM (inactive) and the GI50 [3] was > 10 µM (inactive). The GI50 [4] was > 10 µM (inactive), the GI50 [5] was > 10 µM (inactive) and the GI50 [6] was > 10 µM (inactive). The GI50 [7] was > 10 µM (inactive), the GI50 [8] was 6.21 µM (inactive) and the GI50 [9] was 3.67 µM (inactive). The GI50 [10] was > 10 µM (inactive), the GI50 [11] was > 10 µM (inactive) and the GI50 [12] was > 10 µM (inactive). For the same compound, the GI50 [13] was > 10 µM (inactive), the GI50 [14] was > 10 µM (inactive) and the GI50 [15] was > 10 µM (inactive). For the same compound, the GI50 [16] was > 10 µM (inactive), the GI50 [17] was > 10 µM (inactive) and the GI50 [18] was > 10 µM (inactive). The GI50 [19] was > 10 µM (inactive), the GI50 [20] was > 10 µM (inactive) and the GI50 [21] was > 10 µM (inactive). The GI50 [22] was > 10 µM (inactive), the GI50 [23] was > 10 µM (inactive) and the GI50 [24] was 2.32 µM (inactive). For the same compound, the GI50 [25] was > 10 µM (inactive), the GI50 [26] was > 10 µM (inactive) and the GI50 [27] was > 10 µM (inactive). For the same compound, the GI50 [28] was > 10 µM (inactive), the GI50 [29] was > 10 µM (inactive) and the GI50 [30] was 4.95 µM (inactive). The GI50 [31] was > 10 µM (inactive), the GI50 [32] was > 10 µM (inactive) and the GI50 [33] was > 10 µM (inactive). The GI50 [34] was > 10 µM (inactive), the GI50 [35] was > 10 µM (inactive) and the GI50 [36] was > 10 µM (inactive). The GI50 [37] was 6.28 µM (inactive), the GI50 [38] was > 10 µM (inactive) and the GI50 [39] was > 10 µM (inactive). The GI50 [40] was > 10 µM (inactive), the GI50 [41] was > 10 µM (inactive) and the GI50 [42] was > 10 µM (inactive). The GI50 [43] was over 10 µM.

From ChEMBL document CHEMBL1201862, “PubChem BioAssay data set” (2004)
